One test has as its system rice seedlings. Nature of the test: IAA sensitivity test on rice seedlings. Format: in vivo. The method, then: Taking rice and lettuce for example, IAA sensitivity of the microbial preparation is tested in steps of: disinfecting and germinating rice seedlings; putting the rice seedlings in a sterilized Petri dish in which a filter paper is disposed; […]; moving the sterilized Petri dish into a plant growth box for 4 days; measuring an average height of buds of the rice seedlings and an average height of roots of the rice seedlings;

Another test deals with lettuce. Put plainly: IAA sensitivity test on lettuce. Format: in vivo. The method, then: Taking rice and lettuce for example, IAA sensitivity of the microbial preparation is tested in steps of: disinfecting seeds of the lettuce with 5% sodium hypochlorite and putting the seeds of the lettuce in another sterilized Petri dish in which a filter paper is disposed; adding 3 mL of 0.03 μM, 3 μM, 30 μM, and 300 μM of IAA aqueous solutions respectively; moving another sterilized Petri dish into another plant growth box for 3 days; and measuring a germination rate and a height of each lettuce and a length of a root of each lettuce.

Turning to `O=C(O)Cc1c[nH]c2ccccc12` [IAA], the “growth of the roots of the rice seedlings” value in the test on rice seedlings (IAA 0.03 μM to 30 μM, 4 days, FIG. 1) is reported as “does not promote a growth of the roots”; in the test on rice seedlings (IAA 300 μM, 4 days, FIG. 1) it was “limited”; in the test on rice seedlings (IAA within 0.00003 μM to 0.003 μM) it was “do not grow obviously”. For the same compound, the “growth of the lettuce seedlings” value in the test on lettuce (IAA 0.03 μM (lowest concentration), 3 days) is on record as “reduces a growth of the lettuce seedlings”. In the test on lettuce (IAA 0.03 μM, 3 days (no IAA: 5.3 mm)), the “height of lettuce sprouts” value was found to be 3.5 mm. Besides, the “length of lettuce roots” value with lettuce (IAA 0.03 μM, 3 days (no IAA: 14.8 mm)) turned out to be 8.8 mm. For the same compound, the “germination rate of seeds of the lettuce” value with lettuce (IAA 300 μM, 3 days (no IAA: 78%)) was 13%.

Values taken from US20220167627A1, “Microbial preparation of bacillus” (priority 2020, published 2022).
